In US20260373132A1, “PERK INHIBITORHC-5404 IN COMBINATION WITH ANTI-PD-1 ANTIBODY AND/OR AN ANTIANGIOGENETIC AGENT FOR USE IN THE TREATMENT OF CANCER” (HIBERCELL, INC., priority 2022, published 2026):

Columns and labels:
pPERK in 786-O tumors = assay: pPERK in 786-O tumor xenografts; assay type: in vivo, mouse
[1] = system: MB49 syngeneic bladder cancer model; assay: MB49 syngeneic bladder cancer tumor growth; assay type: in vivo, mouse
Description: C57BL/6 mice were subcutaneously inoculated with MB49 cells, and treatment started on day 8 post cell inoculation. A group of animals (n=10/group) received either vehicle, HC-5404 (PO, BID) (3 mg/kg, 10 mg/kg, or 30 mg/kg), 5 mg/kg anti-PD-1 antibody (aPD-1) (RMP1-14) (IP, BIW), or the combination of both. At various timepoints, animals were sacrificed, and flow cytometry was performed on blood or single cell suspensions from tumors or lymph nodes (n=6).
MB49 (lot #18B016) mouse urothelial carcinoma cell line was purchased from Sigma—The European Collection of Authenticated Cell Cultures (ECACC). Cells were free of human and animal pathogens as tested by h-IMPACT-I and IMPACT-III (IDEXX Bioresearch, Columbia, MO). Additionally, the genetic profile of the cells matched with the ECACC reference standard as tested by STR based DNA fingerprinting assay. Cells were maintained in DMEM with 10% FBS, and cultured up to 4 passages prior to implantation. Cells were harvested at ~80% confluence, washed twice with DMEM without FBS and suspended in DMEM without FBS at 5×10^6 cells/mL for implantation.
[…] (7-8 week of age) were implanted into the right flank area subcutaneously under Isoflurane anesthesia with 0.5×10^6 MB49 cells/mouse in a total volume of […] on Day 0. Animals were randomized into treatment groups when the average tumor volume reached ~50 mm^3 on Day 5 post inoculation.
Tumor volume was measured twice weekly.
Tumor volume was calculated using the formula [tumor volume (mm^3)=π/6×length×width^2) and plotted as means±SEM. The % T/C (ratio between the tumor volume in the treated group and in the control group) was calculated by the formula 100×ΔT/ΔC, if ΔT>0 of the mean values. ΔT, mean tumor volume of the drug-treated group on the observation day of the study—mean tumor volume of the drug-treated group on initial day of dosing; ΔC, mean tumor volume of the control group on the observation day of the study—mean tumor volume of the control group on initial day of dosing. Regression was calculated using the formula=100×ΔT/Tinitial, if ΔT<0. Animals with <14 mm^3 tumor volume for three consecutive measurements were considered as complete responders and tumors with >50% regressions were partial responders.
This example investigated the effect of HC-5404, aPD-1, and HC-5404 in combination with aPD-1 on myeloid cells in tumor microenvironment and T-cell activation following procedures analogous to those described above using MB49 syngeneic model. […] Mice with established syngeneic MB49 tumors were randomized 6 days post tumor inoculation into groups that received either vehicle (0.5% methylcellulose in water, BID, PO), HC-5404 (10 or 30 mg/kg, BID, PO), anti-PD-1 Ab (10 mg/kg, BIW), or both HC-5404 and anti-PD-1.

[2] = mouse plasma protein binding; assay type: in vitro ADME; settings: read-out: Mouse plasma protein binding (PPB %) (converted)
Description: Initial in vivo studies aimed at understanding the pharmacokinetic and pharmacodynamic (PK/PD) relationship and optimizing the dosing regimen were conducted. HC-5404 was quantified from mouse plasma following a single oral administration (PO) at doses ranging from 3 to 100 mg/kg. […] Mouse plasma protein binding (PPB %) was determined to be 95.6%, which enabled us to calculate the free drug plasma exposure across time (FIG. 18).

**Q.** Which “pPERK expression in 786-O” value (pPERK in 786-O tumors; 30 mg/kg PO BID, seven days (FIG. 30)) does the source give for `Cc1cc(NC(=O)[C@H](O)c2cc(F)cc(F)c2)ccc1-c1cnc(N)c(C(=O)NC(C)C)c1` [HC-5404, (R)-2-amino-5-(4-(2-(3,5-difluorophenyl)-2-hydroxyacetamido)-2-methylphenyl)-N-isopropylnicotinamide] here?
**A.** The value was “strongly inhibited pPERK expression”.

**Q.** And the “time of return of pPERK to baseline in 786-O tumors” value (pPERK in 786-O tumors; 30 mg/kg, post dose)?
**A.** Its value is no more than 8 h.

**Q.** And the “pPERK levels in 786-O” value (pPERK in 786-O tumors; DC-101 study, 4 days of treatment (FIG. 37))?
**A.** The value was “inhibited the pPERK signal”.

**Q.** What about the inhibition at 30 mg/kg (pPERK in 786-O tumors; Mus musculus, 786-0, 30 mg/kg, 1 h post dose) of the same molecule?
**A.** The inhibition at 30 mg/kg was roughly 90%.

**Q.** And the “VEGFR-TKI-induced pPERK accumulation in 786-O tumors” value (pPERK in 786-O tumors; PD arm, 7 days, HC-5404 in combination with VEGFR-TKIs)?
**A.** The value was “inhibited by the addition of HC-5404”.

**Q.** And the TGI % ([1]; Experiment #1, HC-5404 30 mpk, aPD-1, alone or combined)?
**A.** The TGI % was 52.99%.

**Q.** What about the TGI % ([1]; Experiment #2, HC-5404 30 mpk, aPD-1, alone or combined) of the same molecule?
**A.** The TGI % was 10.64%.

**Q.** What about the “tumor growth inhibition (TGI)” value ([1]; HC-5404 PO BID, aPD-1 5 mg/kg IP BIW, alone or combined) of the same molecule?
**A.** The value was 32%.

**Q.** And the “TGI %, average” value ([1]; average of two independent studies, HC-5404 30 mpk, aPD-1, alone or combined)?
**A.** Its value is 31.82%.

**Q.** What about the fraction unbound [2] of the same molecule?
**A.** The fraction unbound was 0.044.
